This is an account of results in ChEMBL document CHEMBL4152244, “Discovery of new erbB4 inhibitors: Repositioning an orphan chemical library by inverse virtual screening” (Eur J Med Chem, 2018).

The source made the active and inactive calls. The calls are words filed in the database; no cut-off is given here.

What is called inhibition is the share of the control response that was lost under treatment. In general, IC50 refers to the point on the concentration scale where inhibition reaches its midpoint.

Assay [1] addresses T1, Ephrin type-A receptor 3 (Homo sapiens) (UniProt P29320).
T1 sequence (whole entry): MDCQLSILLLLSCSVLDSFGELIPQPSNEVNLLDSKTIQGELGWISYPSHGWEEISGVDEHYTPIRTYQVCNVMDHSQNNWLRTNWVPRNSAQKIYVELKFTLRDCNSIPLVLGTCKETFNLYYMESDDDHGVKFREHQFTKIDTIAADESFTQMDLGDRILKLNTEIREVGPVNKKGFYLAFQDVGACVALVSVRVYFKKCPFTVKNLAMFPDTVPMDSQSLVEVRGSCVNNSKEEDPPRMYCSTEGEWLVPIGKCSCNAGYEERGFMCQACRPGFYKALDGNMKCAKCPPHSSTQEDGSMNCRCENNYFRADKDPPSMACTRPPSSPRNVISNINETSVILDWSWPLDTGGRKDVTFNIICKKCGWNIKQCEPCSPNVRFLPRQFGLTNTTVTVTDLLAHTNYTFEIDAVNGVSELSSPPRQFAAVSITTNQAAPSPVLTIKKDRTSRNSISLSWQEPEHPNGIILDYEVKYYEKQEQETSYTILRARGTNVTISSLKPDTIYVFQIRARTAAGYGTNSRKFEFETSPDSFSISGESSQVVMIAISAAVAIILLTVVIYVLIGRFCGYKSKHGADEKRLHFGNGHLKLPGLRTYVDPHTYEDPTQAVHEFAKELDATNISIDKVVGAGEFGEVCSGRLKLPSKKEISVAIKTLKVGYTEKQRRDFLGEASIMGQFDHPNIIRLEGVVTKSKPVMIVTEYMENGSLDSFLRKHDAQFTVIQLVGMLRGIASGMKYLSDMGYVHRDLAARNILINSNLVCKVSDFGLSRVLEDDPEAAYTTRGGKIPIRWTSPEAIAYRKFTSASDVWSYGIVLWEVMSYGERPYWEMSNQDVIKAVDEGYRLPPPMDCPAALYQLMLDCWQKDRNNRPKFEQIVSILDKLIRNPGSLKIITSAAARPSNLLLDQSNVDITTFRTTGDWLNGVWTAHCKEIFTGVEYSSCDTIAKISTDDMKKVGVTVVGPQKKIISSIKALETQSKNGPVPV
Briefly: Inhibition of recombinant human N-terminal GST-His6-fused ephA3 expressed in Sf9 insect cells at 10 uM using poly (Glu, Tyr) 4:1 as substrate after 60 mins in presence of [gamma-33P]-ATP by microplate scintillation counting method relative to control.

The target of assay [2] is T2, Receptor tyrosine-protein kinase erbB-4 (Homo sapiens, UniProt Q15303). Description: Inhibition of recombinant human N-terminal GST-His6-fused erbB4 expressed in Sf9 insect cells at 10 uM using poly (Glu, Tyr) 4:1 as substrate after 60 mins in presence of [gamma-33P]-ATP by microplate scintillation counting method relative to control.
T2 sequence (Q15303 whole entry, the tested form may be a part): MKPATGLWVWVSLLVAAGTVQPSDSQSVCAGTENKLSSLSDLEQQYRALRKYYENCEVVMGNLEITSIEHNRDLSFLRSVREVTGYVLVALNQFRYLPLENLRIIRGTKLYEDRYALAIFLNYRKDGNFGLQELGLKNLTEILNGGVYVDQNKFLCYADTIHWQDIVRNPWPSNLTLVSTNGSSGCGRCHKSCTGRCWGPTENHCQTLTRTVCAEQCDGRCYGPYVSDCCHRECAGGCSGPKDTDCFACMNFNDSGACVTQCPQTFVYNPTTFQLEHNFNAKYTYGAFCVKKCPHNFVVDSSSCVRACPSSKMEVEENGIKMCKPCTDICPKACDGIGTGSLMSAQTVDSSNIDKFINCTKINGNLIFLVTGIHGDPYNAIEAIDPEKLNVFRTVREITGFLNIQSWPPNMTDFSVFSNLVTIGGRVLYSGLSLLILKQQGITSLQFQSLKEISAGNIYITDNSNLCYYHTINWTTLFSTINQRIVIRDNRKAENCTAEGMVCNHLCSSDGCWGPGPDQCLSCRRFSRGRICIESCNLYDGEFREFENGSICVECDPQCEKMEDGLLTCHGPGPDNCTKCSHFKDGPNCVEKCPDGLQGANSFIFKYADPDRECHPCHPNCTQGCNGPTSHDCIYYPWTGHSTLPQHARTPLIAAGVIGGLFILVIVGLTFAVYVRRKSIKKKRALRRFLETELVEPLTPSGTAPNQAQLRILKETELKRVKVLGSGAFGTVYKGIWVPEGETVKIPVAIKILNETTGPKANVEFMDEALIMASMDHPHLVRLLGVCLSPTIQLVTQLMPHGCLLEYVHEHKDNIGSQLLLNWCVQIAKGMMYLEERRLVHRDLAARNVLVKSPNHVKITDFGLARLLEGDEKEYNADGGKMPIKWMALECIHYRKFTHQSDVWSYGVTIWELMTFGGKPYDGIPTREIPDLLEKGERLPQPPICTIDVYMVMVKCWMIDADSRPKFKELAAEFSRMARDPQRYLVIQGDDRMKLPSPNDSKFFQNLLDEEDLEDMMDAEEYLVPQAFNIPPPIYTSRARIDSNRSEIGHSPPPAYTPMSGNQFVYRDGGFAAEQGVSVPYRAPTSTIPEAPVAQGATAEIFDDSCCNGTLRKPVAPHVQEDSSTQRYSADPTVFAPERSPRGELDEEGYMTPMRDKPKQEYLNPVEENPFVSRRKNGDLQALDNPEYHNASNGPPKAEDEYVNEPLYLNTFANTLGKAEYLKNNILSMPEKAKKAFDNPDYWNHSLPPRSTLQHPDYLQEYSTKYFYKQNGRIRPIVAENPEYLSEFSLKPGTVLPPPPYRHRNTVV
For assay [3], the target named is T3, 3-phosphoinositide-dependent protein kinase 1 (Homo sapiens) (UniProt O15530).
T3 sequence (whole entry): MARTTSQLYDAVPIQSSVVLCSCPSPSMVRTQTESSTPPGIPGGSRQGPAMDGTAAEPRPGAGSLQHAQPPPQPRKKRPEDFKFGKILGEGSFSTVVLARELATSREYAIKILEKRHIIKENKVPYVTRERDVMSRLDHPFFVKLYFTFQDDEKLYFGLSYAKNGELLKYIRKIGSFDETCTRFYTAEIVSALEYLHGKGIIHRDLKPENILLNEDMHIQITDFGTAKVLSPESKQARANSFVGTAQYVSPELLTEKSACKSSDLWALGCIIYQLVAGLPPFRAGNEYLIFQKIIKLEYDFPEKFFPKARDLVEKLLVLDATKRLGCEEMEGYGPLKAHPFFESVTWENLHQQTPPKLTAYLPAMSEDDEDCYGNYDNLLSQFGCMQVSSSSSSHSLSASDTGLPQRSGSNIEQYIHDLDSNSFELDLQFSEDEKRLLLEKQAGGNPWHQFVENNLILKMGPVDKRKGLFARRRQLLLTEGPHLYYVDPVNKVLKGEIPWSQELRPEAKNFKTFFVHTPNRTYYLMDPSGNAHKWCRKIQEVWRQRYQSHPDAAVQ
Description: Inhibition of recombinant human N-terminal His6-fused pdk1 expressed in Sf9 insect cells at 10 uM using tetra (LRRWSLG) as substrate after 60 mins in presence of [gamma-33P]-ATP by microplate scintillation counting method relative to control.

Assay [4] deals with MCF7. Description: Cell cycle arrest in human MCF7 cells assessed as accumulation at G2/M phase at 1 uM after 24 hrs by propidium iodide staining-based flow cytometric method. The assay is classed as functional.
The target of assay [5] is T2, Receptor tyrosine-protein kinase erbB-4. Description: Inhibition of recombinant human N-terminal GST-His6-fused erbB4 expressed in Sf9 insect cells using poly (Glu, Tyr) 4:1 as substrate after 60 mins in presence of [gamma-33P]-ATP by microplate scintillation counting method.
Assay [6] addresses Receptor tyrosine-protein kinase erbB-2 (Homo sapiens, UniProt P04626). Description: Inhibition of recombinant human N-terminal GST-His6-fused erbB2 expressed in Sf9 insect cells using poly (Glu, Tyr) 4:1 as substrate after 60 mins in presence of [gamma-33P]-ATP by microplate scintillation counting method.
Assay [7] has as its system MCF7. Description: Induction of cell death in human MCF7 cells assessed as appearance of sub-G0 hypodiploid nuclei at 1 uM after 24 hrs by propidium iodide staining-based flow cytometric method. In kind it is functional. (In flow cytometry, cells or beads pass a laser one at a time.)
Assay [8] concerns MCF7. Description: Cytotoxicity against human MCF7 cells after 24 hrs by MTT assay. In kind it is functional, cell-based. As to conditions: MCF7, 24 h. Background: Tetrazolium dyes change colour on reduction, which living cells bring about.

Receptor tyrosine-protein kinase erbB-2, sequence (P04626 whole entry, the tested form may be a part): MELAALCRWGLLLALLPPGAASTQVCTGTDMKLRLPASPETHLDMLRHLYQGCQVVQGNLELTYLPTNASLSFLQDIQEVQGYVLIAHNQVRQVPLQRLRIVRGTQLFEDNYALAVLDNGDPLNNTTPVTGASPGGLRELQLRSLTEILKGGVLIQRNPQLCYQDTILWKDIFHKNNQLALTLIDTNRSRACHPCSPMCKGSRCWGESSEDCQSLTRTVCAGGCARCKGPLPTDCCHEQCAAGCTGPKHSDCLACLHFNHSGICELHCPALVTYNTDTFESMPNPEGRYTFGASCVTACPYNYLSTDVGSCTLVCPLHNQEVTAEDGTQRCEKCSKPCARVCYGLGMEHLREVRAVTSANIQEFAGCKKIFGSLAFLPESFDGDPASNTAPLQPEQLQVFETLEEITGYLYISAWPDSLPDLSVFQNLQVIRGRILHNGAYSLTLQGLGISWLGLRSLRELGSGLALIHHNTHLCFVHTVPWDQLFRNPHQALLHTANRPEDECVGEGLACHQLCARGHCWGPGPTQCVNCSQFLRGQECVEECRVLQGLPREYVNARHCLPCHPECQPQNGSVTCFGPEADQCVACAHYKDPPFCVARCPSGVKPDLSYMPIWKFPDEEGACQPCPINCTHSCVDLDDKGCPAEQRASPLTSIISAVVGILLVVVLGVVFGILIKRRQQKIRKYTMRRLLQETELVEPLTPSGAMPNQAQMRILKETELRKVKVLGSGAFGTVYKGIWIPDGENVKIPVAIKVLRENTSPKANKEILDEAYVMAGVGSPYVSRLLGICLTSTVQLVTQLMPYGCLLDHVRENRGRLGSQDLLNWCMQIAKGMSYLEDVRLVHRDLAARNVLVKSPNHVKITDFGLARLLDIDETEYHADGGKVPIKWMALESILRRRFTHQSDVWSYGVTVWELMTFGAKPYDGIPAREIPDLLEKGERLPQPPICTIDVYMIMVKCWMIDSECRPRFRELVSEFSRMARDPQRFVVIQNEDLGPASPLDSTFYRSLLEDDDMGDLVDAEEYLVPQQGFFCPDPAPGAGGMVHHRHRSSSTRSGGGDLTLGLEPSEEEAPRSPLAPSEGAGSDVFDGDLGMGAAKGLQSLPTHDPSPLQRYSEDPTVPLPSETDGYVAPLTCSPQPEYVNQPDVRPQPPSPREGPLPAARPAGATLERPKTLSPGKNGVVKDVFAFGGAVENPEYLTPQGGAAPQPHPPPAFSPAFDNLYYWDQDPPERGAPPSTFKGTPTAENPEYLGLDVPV

As for `O=S(=O)(NCCc1cccc(F)c1)c1cc(-c2ccnc(F)c2)cc(C(F)(F)F)c1`, the inhibition in assay [1] was 9.1%; in assay [2], 18.4%.

`Cc1noc(C)c1-c1cc(C(F)(F)F)cc(S(=O)(=O)NCCc2cccc(F)c2)c1`: the inhibition in assay [2] amounted to 9%.

In the case of `O=S(=O)(NCCc1cccc(F)c1)c1cc(-c2ccc(F)nc2)cc(C(F)(F)F)c1`, the inhibition turned out to be 10.3% in assay [3] and 7.5% in assay [2].

`O=S(=O)(NCCc1cccc(F)c1)c1cc(-c2ccc(COc3cccc4ccccc34)cc2)cc(C(F)(F)F)c1`: the values for the inhibition in assay [3], in assay [1] and in assay [2] were 35.6%, 30.1% and 49%, respectively.

For `COC(=O)c1ccc(-c2cc(C(F)(F)F)cc(S(=O)(=O)NCCc3cccc(F)c3)c2)cn1`, the inhibition in assay [2] was 15.8%.

Take `O=S(=O)(NCCc1cccc(F)c1)c1cc(-c2ccc(-c3cccs3)s2)cc(C(F)(F)F)c1`: the result in the assay with MCF7 [4] was Active. The IC50 in assay [5] amounted to 8.05 µM; in assay [6], 31.5 µM; in the assay with MCF7 [8] it was 9.09 µM. Further, in the assay on MCF7 [7], the outcome was inactive. Further, the inhibition worked out at 40.3% in assay [3], 22% in assay [1] and 57% in assay [2].

On to `COc1ncc(-c2cc(C(F)(F)F)cc(S(=O)(=O)NCCc3cccc(F)c3)c2)c(OC)n1`, for which the inhibition in assay [2] was 10.3%.

For `O=S(=O)(NCCc1cccc(F)c1)c1cc(-c2cccc3c2oc2ccccc23)cc(C(F)(F)F)c1`, the inhibition in assay [3] came out at 2.4%; in assay [1] it was 11.1%; in assay [2], 50.5%.

Turning to `COc1ccc(F)cc1-c1cc(C(F)(F)F)cc(S(=O)(=O)NCCc2cccc(F)c2)c1`, the inhibition turned out to be 40.5% in assay [3] and 19.1% in assay [2].

As for `O=S(=O)(NCCc1cccc(F)c1)c1cc(-c2ccc(COc3cccc(C(F)(F)F)c3)cc2)cc(C(F)(F)F)c1`, the IC50 is 5.06 µM in assay [5], 18 µM in assay [6] and 28.2 µM in the assay with MCF7 [8]. Further, the figures for the inhibition in assay [3], in assay [1] and in assay [2] were 50.8%, 28.5% and 67.9%, respectively.

Regarding `O=Cc1ccc(-c2cc(C(F)(F)F)cc(S(=O)(=O)NCCc3cccc(F)c3)c2)s1`, the values for the inhibition in assay [3], in assay [1] and in assay [2] were 5.2%, 7.8% and 22.2%, respectively.

As to `COc1cc(-c2cc(C(F)(F)F)cc(S(=O)(=O)NCCc3cccc(F)c3)c2)c(OC)nn1`, in assay [2], the inhibition stood at 14.9%.

`O=S(=O)(NCCc1cccc(F)c1)c1cc(-c2ccccc2COc2cccc(C(F)(F)F)c2)cc(C(F)(F)F)c1`: the half-inhibitory concentration (IC50) in assay [5] is 4.41 µM; in assay [6], 9.71 µM; in the assay with MCF7 [8] it was 44.2 µM. Also, the inhibition in assay [3] came out at 52.7%; in assay [1], 30.4%; in assay [2], 63.1%.

On to `O=S(=O)(NCCc1cccc(F)c1)c1cc(-c2cccc3c2Sc2ccccc2S3)cc(C(F)(F)F)c1`, for which the concentration for half-maximal inhibition (IC50) was found to be 6.4 µM in assay [5], 10.4 µM in assay [6] and 22.8 µM with MCF7 [8]. For the same molecule, the inhibition amounted to 35% in assay [3], 32.8% in assay [1] and 57.9% in assay [2].

For the molecule `O=S(=O)(NCCc1cccc(F)c1)c1cc(-c2cccnc2)cc(C(F)(F)F)c1`, the inhibition in assay [1] was determined as 4.2%; in assay [2] it was 15.7%.

On to `O=S(=O)(NCCc1cccc(F)c1)c1cc(-c2cccc(S(=O)(=O)N3CCCC3)c2)cc(C(F)(F)F)c1`, for which the inhibition turned out to be 5.7% in assay [3] and 34.3% in assay [2].

As to `O=S(=O)(NCCc1cccc(F)c1)c1cc(-c2cc3ccccc3[nH]2)cc(C(F)(F)F)c1`, the inhibition in assay [3] turned out to be 52.2%; in assay [1], 22.7%; in assay [2] it was 4.6%.

Consider `COc1cc(-c2cc(C(F)(F)F)cc(S(=O)(=O)NCCc3cccc(F)c3)c2)ccc1F`, for which the inhibition came out at 27.6% in assay [3] and 12.8% in assay [2].

As to `COCCc1ccc(OCc2ccc(-c3cc(C(F)(F)F)cc(S(=O)(=O)NCCc4cccc(F)c4)c3)cc2)cc1`, the IC50 in assay [5] came to 6.43 µM; in assay [6], 25.4 µM; in the assay with MCF7 [8], 45.1 µM. Further, the inhibition came to 42.8% in assay [3], 33.1% in assay [1] and 67.7% in assay [2].
